From patent publication US20220211606A1, “LIQUID COMPOSITION FOR INFLUENCING THE MICROBIOTA ON A SUBJECT'S SKIN COMPRISING CHITOSAN” (Medoderm GmbH, priority 2019, published 2022) come the findings set out here.

The test system of assay [1] is Staphylococcus aureus. Nature of the assay: Repopulation of disinfected human skin (Rodac contact plates), pathogen. Type of assay: in vivo. The note with it: upper arm disinfected with 70% isopropanol; 0, 1 h, 2 h, 4 h, 6 h; 100 μl on approx. 50 cm^2.
Assay [2] has as its system endogenous skin microflora. Nature of the assay: Repopulation of disinfected human skin after contact with worn clothing (Rodac contact plates). The class given is in vivo. The note with it: after 6 h test period, 10 minutes contact with worn clothing, sampled 1 h after removal.
Procedure: The test germ corresponded to endogenous skin microflora. […] The sample size was approx. 50 cm^2 skin surface area and the sample volume 100 μl. Contact time was 0, 1 h, 2 h, 4 h, 6 h, after contact and 1 h after contact.
Rodac contact plates were used for sampling of microorganisms from human skin (upper arm) before and after treatment. The upper arm region was chosen to prevent contamination by touching and clothing. Disinfection was performed with 70% isopropanol.
After the 6 h test period, the test areas were exposed to worn clothing for 10 minutes, resulting in a typical transfer of microorganism from clothing to the skin surface (time point directly after contact). 1 h after removal of clothing the bacteria were collected from the test areas aby Rodac contact plates.
Assay [3] concerns Staphylococcus aureus. In words: Microbiome agar matrix test, surface pathogen. The note with it: 20 μl on agar surface; 37° C. over night; inoculum 2.0×10^6 CFU. Type of assay: cell-based. As for the experimental part: For the present experiment, the above microbiome organisms are seeded out on an agar plate. Afterwards the organisms are embedded in a special microbiome agar matrix to simulate the epidermis layers. […] In the next step the test formulation is applied onto small areas on the surface and the test setup is incubated at 37° C. over night. After incubation, growth of the matrix-embedded microbiome organisms and superficial Staphylococcus aureus is used for the assessment of an influence of the test formulation on the microbiome organisms. […] If the applied product also causes a growth inhibition of the microbiome organisms, the product is assessed to have negative influence on the human microbiome. A disinfectant agent (isopropanol:water 70:30) is used as […] to inhibit growth of the pathogen as well as the microbiome organisms. Buffer solution (used for dilution, if applied; 0.9% (w/w) NaCl in water) is used as a negative control. The sample volume of test formulation is 20 μl. The inoculum microbiome contains 2.0×10^6 CFU (colony forming units). The inoculum pathogen was set at 2.0×10^6 CFU.

In the case of `CC(C)O` [Disinfection, isopropanol], in the assay on Staphylococcus aureus [1], the “Staphylococcus aureus on the test area” value is listed as “only found on the “Disinfection” test area”. In addition, the “microorganisms collected 1 h after exposure to worn clothing” value in assay [2] is reported as “also showed pathogenic organisms (gram-negative bacteria=big colonies)”. The “growth of superficial Staphylococcus aureus” value in the assay on Staphylococcus aureus [3] is reported as “neither growth on the surface”.
